Data from US11896704B2, “Compounds useful for the treatment and/or care of the skin, hair, nails and/or mucous membranes” (LUBRIZOL ADVANCED MATERIALS, INC., priority 2017, dated 2024).
The star is where a group is joined. Palmitoyl = CCCCCCCCCCCCCCCC(=O)*; NHhexadecyl = CCCCCCCCCCCCCCCCN*; NHHex = CCCCCCN*

test system: JARID1A gene; assay: JARID1A gene expression in synchronized human epidermal keratinocytes (HEKa), real time PCR arrays; assay type: cell-based; details: 0.005 mg/ml, one experiment
Procedure: In Vitro Study of JARID1A Gene Expression in Synchronized Human Epidermal Keratinocytes from Adult (HEKa) Using Real Time PCR Arrays.
HEKa cells (Life Technologies) are seeded at 3.0×10^5 cells/well in 12-well plates (2 wells per condition) and incubated in culture medium, Keratinocyte growth medium supplemented with Mix C39016-CaCl2 solution (Promocell). For synchronization, cells were subjected to two alternative cycles of 12 hours each at 37° C. in 5% CO2 humidified air (day mode) and 33° C. in 5% CO2 humidified air (night mode). 12 hours after starting synchronization, cells are incubated with the peptides at 0.5 mg/ml or (5 μg/ml) in culture medium, depending on the toxicity effects of each peptide (non-toxic conditions are selected). Cells treated with medium alone are used as basal condition.
At the end of synchronization, cell lysates are collected at two different times: 7:30 hour (early morning point) and 11:30 hour (midday point). Briefly, cells are lysed directly in the wells, and RNA is purified following the protocol described on the RNeasy™ Mini kit (Qiagen) according to the manufacture's protocol. After RNA elution, quantification and analysis of purity of RNA samples are performed with a nanodrop (Thermo). For each sample, 3 μg of high quality RNA is retrotranscribed with iScript Advanced™ (BioRad) in a final volume of 20 μl. Complete reaction mix is incubated in a thermal cycler (Eppendorf) at 42° C. for 30 minutes, and the reaction is stopped at 85° C. for 5 minutes. Complementary DNA is amplified by qPCR in a real-time PCR thermocycler (BioRad) using SYBR Green Supermix™ (BioRad) in the 96-well plate for use with SYBR® Green (BioRad). SYBR Green binds to double-stranded DNA molecules and emits fluorescence which is quantified, and the fluorescence intensity is proportional to the amount of the product in the PCR reaction. Cycling conditions in BioRad CFX96™ instrument are: 95° C. for 3 minutes, followed by 40 cycles of denaturing at 95° C. for 5 seconds, annealing and elongation at 60° C. for 30 seconds. GAPDH (Glyceraldehyde 3-phosphate dehydrogenase), TBP (TATA box binding protein) and HRPT1 (hypoxanthine phosphoribosyltransferase 1) are used as endogenous controls. Fold change relative to the expression of the sample genes and reference genes is calculated using normalized expression (AA(Ct)) method using CFX Manager Software™ (BioRad).
Fold induction of JARID1A gene at 7:30 hour with respect to basal conditions at 7:30 hour for the samples tested are shown in Table 7. The data for fold induction represent the value of one experiment.

Going from “Palm-Phe-Trp-Met-Lys-Arg-Lys-Arg-Val-Pro-NH2 (Palmitoyl-FWMKRKRVP-NH2; SMILES CCCCCCCCCCCCCCCC(=O)N[C@@H](Cc1ccccc1)C(=O)N[C@@H](Cc1c[nH]c2ccccc12)C(=O)N[C@@H](CCSC)C(=O)N[C@@H](CCCCN)C(=O)N[C@@H](CCCNC(=N)N)C(=O)N[C@@H](CCCCN)C(=O)N[C@@H](CCCNC(=N)N)C(=O)N[C@H](C(=O)N1CCC[C@H]1C(N)=O)C(C)C) [PEP-2]” to “Palm-Phe-Trp-Met-Lys-Arg-Lys-Arg-Val-Pro-OH (Palmitoyl-FWMKRKRVP-OH; SMILES CCCCCCCCCCCCCCCC(=O)N[C@@H](Cc1ccccc1)C(=O)N[C@@H](Cc1c[nH]c2ccccc12)C(=O)N[C@@H](CCSC)C(=O)N[C@@H](CCCCN)C(=O)N[C@@H](CCCNC(=N)N)C(=O)N[C@@H](CCCCN)C(=O)N[C@@H](CCCNC(=N)N)C(=O)N[C@H](C(=O)N1CCC[C@H]1C(=O)O)C(C)C) [PEP-5]”, the “Fold induction with respect to Basal condition at 7:30h (%)” value (from here on “Fold induction … (%)”) falls from 122.22% to 121.55%.

same assay, conditions: 0.5 mg/ml, one experiment

Compared with “Ac-Phe-Trp-Met-Lys-Arg-Lys-Arg-Val-Pro-NH2 (Ac-FWMKRKRVP-NH2) [PEP-3]”, “Ac-Phe-Trp-Met-Lys-Arg-Lys-Arg-Val-Pro-OH (Ac-FWMKRKRVP-OH) [PEP-6]” is lower in “Fold induction … (%)” value: 126.63% for the first, 109.08% for the second.

Compared with “H-Phe-Trp-Ile-Gln-Arg-Lys-His-Met-Pro-NH2 (H-FWIQRKHMP-NH2) [PEP-10]”, “H-Phe-Trp-Leu-Arg-Arg-Lys-Lys-Ile-Pro-NH2 (H-FWLRRKKIP-NH2) [PEP-9]” is higher in “Fold induction … (%)” value: 138.09% for the first, 141.90% for the second.

Compared with “H-Phe-Trp-Leu-Lys-Arg-Lys-Arg-Val-Pro-NH2 (H-FWLKRKRVP-NH2) [PEP-11]”, “H-Phe-Trp-Met-Arg-Arg-Lys-Arg-Val-Pro-NH2 (H-FWMRRKRVP-NH2) [PEP-12]” is higher in “Fold induction … (%)” value: 127.91% for the first, 203.75% for the second.

Compared with “H-Phe-Trp-Met-Lys-Arg-Lys-Arg-Ile-Pro-NH2 (H-FWMKRKRIP-NH2) [PEP-14]”, “H-Phe-Trp-Met-Lys-Arg-Lys-Arg-Leu-Pro-NH2 (H-FWMKRKRLP-NH2) [PEP-15]” is lower in “Fold induction … (%)” value: 187.65% for the first, 123.90% for the second.

First: H-Phe-Trp-Met-Lys-Arg-Lys-Arg-Val-Pro-NHC6H13 (H-FWMKRKRVP-NHHex; SMILES CCCCCCNC(=O)[C@@H]1CCCN1C(=O)[C@@H](NC(=O)[C@H](CCCNC(=N)N)NC(=O)[C@H](CCCCN)NC(=O)[C@H](CCCNC(=N)N)NC(=O)[C@H](CCCCN)NC(=O)[C@H](CCSC)NC(=O)[C@H](Cc1c[nH]c2ccccc12)NC(=O)[C@@H](N)Cc1ccccc1)C(C)C) [PEP-7]
Second: H-Phe-Trp-Met-Lys-Arg-Lys-Arg-Val-Pro-NHC16H33 (H-FWMKRKRVP-NHhexadecyl; SMILES CCCCCCCCCCCCCCCCNC(=O)[C@@H]1CCCN1C(=O)[C@@H](NC(=O)[C@H](CCCNC(=N)N)NC(=O)[C@H](CCCCN)NC(=O)[C@H](CCCNC(=N)N)NC(=O)[C@H](CCCCN)NC(=O)[C@H](CCSC)NC(=O)[C@H](Cc1c[nH]c2ccccc12)NC(=O)[C@@H](N)Cc1ccccc1)C(C)C) [PEP-8]
The “Fold induction … (%)” value of the first is higher: 159.64% for the first, 113.64% for the second.

First: H-Phe-Trp-Met-Lys-Arg-Lys-Arg-Val-Pro-OH (H-FWMKRKRVP-OH) [PEP-4]
Second: H-Phe-Trp-Met-Lys-Arg-Lys-Lys-Val-Pro-NH2 (H-FWMKRKKVP-NH2) [PEP-13]
The “Fold induction … (%)” value of the first is higher: 158.92% for the first, 147.62% for the second.

test system: mitochondrial complex I (NADH dehydrogenase); assay: Mitochondrial complex I activity in human dermal fibroblasts, colorimetric assay; assay type: cell-based; details: HDFa, 10 mM, 48 hours, positive control
Procedure: Inhibition of Mitochondrial Complex I Activity Using an Assay Based on Colorimetric Detection. Human Dermal Fibroblasts from adult (HDFa, Life Technologies) are seeded at a density of 750.000 cells/75 cm^2 flask (one flask per condition) in culture medium M106 with Low Serum Growth Supplement (Life Technologies). Cells are grown during 8 days at 37° C. in 5% CO2 humidified air. Then, medium is removed and cells are treated with scalar dilutions of the peptide […] (PEP-1, H-[SEQ ID. NO. 2]-NH2) at 1, 0.5 and 0.1 mg/ml in culture medium during 48 hours at 37° C. in 5% CO2 humidified air. Non-treated cells incubated in culture medium alone are used as basal conditions. […] After 48 hours of treatment, cells are detached using trypsin and resuspended in 60 ul of Phosphate buffer saline (Sigma). Total protein concentration is measured by a Pierce BCA Protein Assay Kit (BCA Assay, Thermo Scientific) following manufacturer's protocol to adjust the final protein concentration between 700-1000 ug/ml. Briefly, standards and samples are dispensed and Working Reagent is added to the samples. After 30 minutes of incubation at 37° C., absorbance is measured with a microplate reader (Clariostar®, BMG) at 562 nm. Mitochondrial complex I activity is measured with Complex I enzyme activity microplate assay Kit (Abcam) according to the manufacture's protocol. This assay follows the oxidation of NADH to NAD coupled to the reduction of a specific colorimetric dye, leading to an increase in absorbance at 450 nm. In brief, 200 ul of each sample (adjusted to 700-1000 ug/ml of total protein amount) is incubated for 3 hours. After that, wells are washed several times and incubated with Assay Solution provided with the kit (composed by NADH and the specific dye). For the determination of mitochondrial complex I activity, colorimetric increase of Optical Density (OD) at 450 nm in a kinetic reaction along 1 hour is measured with a microplate reader (Clariostar©, BMG). Results are calculated as the rate of increase in OD at 450 nm between two points in the linear zone over time. The percentage of mitochondrial complex I activity relative to basal conditions after the treatment with […] (PEP-1, H-[SEQ ID. NO. 2]-NH2) is represented in Table 9. These values represent the mean for at least three independent assays.

In the case of `CN(C)C(=N)N=C(N)N` [Metformin, reference compound], the “Percentage of mitochondrial complex I activity relative to basal condition (%)” value is reported as 63.61%.

test system: Human Dermal Fibroblasts (HDFa); assay: Reactive oxygen species (ROS) levels in HDFa, fluorescence; assay type: cell-based; details: 0.05 mM, 30 min, positive control
Procedure: Evaluation of Reactive Oxygen Species (ROS) Levels on Human Dermal Fibroblasts (HDFa) by a Fluorescence Approach. Human Dermal Fibroblasts from adult (HDFa, Life Technologies) are seeded at a density of 10,000 cells/well (3 wells per condition) in 96-well plates in culture medium M106 with Low Serum Growth Supplement (LSGS, Life Technologies). Cells are grown during 24 hours at 37° C. in 5% CO2 humidified air. Then, medium is removed and cells are treated with the peptide […] (PEP-1, H-[SEQ ID. NO. 2]-NH2) during 16 hours at 37° C. in 5% CO2 humidified air. Non-treated cells incubated in treatment medium alone are used as basal conditions. […] After 30 min at 37° C. in 5% CO2 humidified air, cells are used to quantify ROS levels. ROS levels are quantified using a Cellular Reactive Oxygen Species Detection Assay Kit (Abcam) according to the manufacture's protocol. […] After the period of time, fluorescence signal is determined using Operetta® confocal microscope (PerkinElmer, Inc). Fluorescence intensities are measured using Mitotracker OrangeTM channel (Excitation Filter: 520-550 nm/Emission Filter: 560-630 nm) and are corrected by the determination of the number of nuclei per well. […]

`OO` [Hydrogen peroxide, Hydrogen Peroxide] was tested, and the “Percentage of ROS level relative to basal control conditions (%)” value was 1309.23%.
